Experimental data from patent US20240269115A1, “PYRAZOLONE COMPOUNDS FOR USE IN DEGENERATIVE RETINAL DISEASES” (FLONEXT S.R.L., priority 2021, published 2024).

Experiments:
[1] = system: NalO3-induced increase in retinal 4-hydroxynonenal (4-HNE) in macular degeneration model mice; assay: Retinal oxidative stress by 4-HNE immunofluorescence in the NalO3 mouse model of macular degeneration; assay type: in vivo, C57BL/6J male mice; details: eye drops 5 μl 3 times a day, days 1-3 (dipyrone 16.65 μg, propyphenazone 11.5 μg, indomethacin 17.85 μg); NalO3 20 mg/kg retro-orbital vein; retina collected day 4; mean±SEM
Method: (§1) To create a valid model of macular degeneration, systemic administration (via the retro-orbital vein) of NalO3 was carried out in C57BL/6J male mice aged 5-8 weeks and weighing 22-25 g supplied by the Charles River company (Milan, Italy). A total of 30 mice were used to carry out the experiments described below. The animals were kept in a temperature and humidity-controlled environment (12-hour dark/light cycle, free access to food and water).
(§2) As described above, the mouse model obtained by systemic administration (via the retro-orbital vein) of NalO3 is a model of macular degeneration. In fact, 3 days after administration, NalO3 induced in mice persistent retinal damage with characteristics similar to those observed in age-related macular degeneration in humans.
(§3) In order to evaluate the efficacy of dipyrone and propyphenazone, preferred compounds belonging to the pyrazolone class, in reducing and treating the retinal damage typical of macular degeneration, a model of macular degeneration was developed with an experiment on 5 groups of mice. The mice were administered dipyrone, propyphenazone, indomethacin or their vehicle, locally via eye drops.
(§4) In particular, a group of 6 mice (used as a control) were given vehicle (V1) (NaCl, 0.9%) of NalO3 (1 ml/kg) 60 minutes before the injection into the retro-orbital vein and subsequently given eye drops (5 μl) containing the vehicle (V2) (4% DMSO, 4% Tween 80 in 0.9% NaCl) of the drugs 3 times a day by instillation. […]
The level of oxidative stress was also assessed throughout the thickness of the retina by measuring the immunofluorescence intensity for the reactive carbonyl species, 4-hydroxynonenal (4-HNE), a final indicator of oxidative stress.
Levels of 4-HNE were quantified using a primary antibody (#ab48506, monoclonal mouse [HNEJ-2], 1:40, Abcam, Cambridge, UK) to which a second antibody (fluorophore-labelled, Alexa Fluor 594, #A A32742, Thermo Fisher Scientific) binds in the 5 groups of mice treated with V2/V1, V2/NalO3, dipyrone/NalO3, propyphenazone/NalO3 and indomethacin/NalO3. […]

[2] = system: NalO3-induced damage of the RPE layer in macular degeneration model mice; assay: Retinal pigment epithelium damage by RPE65 immunofluorescence in the NalO3 mouse model of macular degeneration; assay type: in vivo, C57BL/6J male mice; details: eye drops 5 μl 3 times a day, days 1-3 (dipyrone 16.65 μg, propyphenazone 11.5 μg, indomethacin 17.85 μg); NalO3 20 mg/kg retro-orbital vein; retina collected day 4; mean±SEM
Method: as §1, §2, §3, §4
Damage to the RPE (retinal pigmented epithelium) was assessed by direct immunofluorescence. […]
The staining intensity of the RPE layer was quantified using a primary antibody (RPE65, #ab13826, mouse monoclonal, 1:100, Abcam, Cambridge, UK) to which a second antibody (fluorophore-labelled, Alexa Fluor 488, #A28175, Thermo Fisher Scientific) binds in the 5 groups of mice treated with V2/V1, V2/NalO3, dipyrone/NalO3, propyphenazone/NalO and indomethacin/NalO3. […]

SMILES: Cc1c(N(C)CS(=O)(=O)[O-])c(=O)n(-c2ccccc2)n1C.[Na+] [dipyrone, Dipyrone]
- reduction in retinal 4-HNE levels (immunofluorescence) vs. V2 [1]: 69.7±11.8%
- reduction of the damage induced by NalO3 on the RPE layer (RPE65 staining intensity) compared to V2 [2]: 87.8±7.8%

SMILES: COc1ccc2c(c1)c(CC(=O)O)c(C)n2C(=O)c1ccc(Cl)cc1 [indomethacin, Indomethacin]
- reduction in retinal 4-HNE levels (immunofluorescence) vs. V2 [1]: 17.5±10.5%
- reduction of the damage induced by NalO3 on the RPE layer (RPE65 staining intensity) compared to V2 [2]: 5.7±14.9%

SMILES: Cc1c(C(C)C)c(=O)n(-c2ccccc2)n1C [propyphenazone, Propyphenazone]
- reduction in retinal 4-HNE levels (immunofluorescence) vs. V2 [1]: 81.3±7.0%
- reduction of the damage induced by NalO3 on the RPE layer (RPE65 staining intensity) compared to V2 [2]: 99.2±23.0%
